Source: ChEMBL document CHEMBL5257026, “Progress and prospects on DENV protease inhibitors” (Eur J Med Chem, 2016)
Starred links: 1 amine or outer side, 2 acyl side, 3 side chain; linkers in the order of their positions; H or OH if unused. Non-standard residues stand in square brackets, D forms with d. Residues, ends and D or L forms follow the SMILES beside them. *: point of attachment. Arg(ψCOCO) = N=C(N)NCCC[C@H](N[*:1])C(=O)C(=O)[*:2]; PhAc = O=C(Cc1ccccc1)*

Assays:
[1] = Inhibition of DENV2 recombinant NS2B-NS3 protease expressed in Escherichia coli JM109 using acetyl-TTSTRR-para-nitroaniline as substrate preincubated for 10 mins followed by substrate addition measured after 120 mins by spectrophotometric analysis; design: species or system dengue virus type 2
[2] = Inhibition of DENV2 recombinant CF40gly(T)R fused NS2B-NS3 protease expressed in Escherichia coli XL1-Blue MRF using Boc-Gly-Arg-Arg-MCA as substrate incubated for 30 mins by fluorescence spectrophotometeric assay; design: species or system dengue virus type 2
[3] = Inhibition of DENV2 recombinant CF40-glycine fused NS2B-NS3 protease expressed in Escherichia coli SG13009 using Ac-TTSTRR-pNA as substrate preincubated for 50 mins followed by substrate addition by spectrophotometric assay; design: species or system dengue virus type 2
[4] = Inhibition of DENV1 N-terminally hexa-His tagged NS2B (48 to 95 residues) -NS3 (1 to 184 residues) protease expressed in Escherichia coli XL1 Blue using QXL570-Phe-Ala-Ser-Gly-Lys-Arg-Ser-Gln-Ile-Gly-Leu-Lys(5-TAMRA)-NH2 as substrate and measured for 15 mins by FRET assay; design: species or system dengue virus type 1
[5] = Inhibition of DENV2 N-terminally hexa-His tagged NS2B (48 to 95 residues) -NS3 (1 to 184 residues) protease expressed in Escherichia coli XL1 Blue using QXL570-Phe-Ala-Ser-Gly-Lys-Arg-Ser-Gln-Ile-Gly-Leu-Lys(5-TAMRA)-NH2 as substrate and measured for 15 mins by FRET assay; design: species or system dengue virus type 2
[6] = Inhibition of DENV3 N-terminally hexa-His tagged NS2B (48 to 95 residues) -NS3 (1 to 184 residues) protease expressed in Escherichia coli XL1 Blue using QXL570-Phe-Ala-Ser-Gly-Lys-Arg-Ser-Gln-Ile-Gly-Leu-Lys(5-TAMRA)-NH2 as substrate and measured for 15 mins by FRET assay; design: species or system dengue virus type 3
[7] = Inhibition of DENV4 N-terminally hexa-His tagged NS2B (48 to 95 residues) -NS3 (1 to 184 residues) protease expressed in Escherichia coli XL1 Blue using QXL570-Phe-Ala-Ser-Gly-Lys-Arg-Ser-Gln-Ile-Gly-Leu-Lys(5-TAMRA)-NH2 as substrate and measured for 15 mins by FRET assay; design: species or system dengue virus type 4
[8] = Inhibition of DENV2 recombinant NS2B-NS3 protease expressed in Escherichia coli C41 using GRR-AMC as substrate incubated for 15 mins by Lineweaver-Burk plot analysis; design: species or system dengue virus type 2
[9] = Inhibition of DENV2 hydrophilic domain of NS2B (48 aminoacids)-NS3 (185 aminoacids) protease using Bz-Nle-Lys-Arg-Arg-AMC as substrate preincubated for 15 mins followed by substrate addition by spectrofluorometeric assay; design: species or system dengue virus type 2
[10] = Inhibition of DENV2 recombinant NS2B-(G4-S-G4)-NS3 protease using Bz-nKRR-AMC as substrate preincubated for 30 mins followed by substrate addition measured after 30 mins by fluorescence spectrophotometric analysis; design: species or system dengue virus type 2
[11] = Inhibition of DENV2 NS2B-G4-S-G4-NS3 protease using Bz-nKRR-AMC as substrate preincubated for 30 mins followed by substrate addition by fluorescence microplate reader assay; design: species or system dengue virus type 2
[12] = Inhibition of DENV2 recombinant NS2B-NS3 protease expressed in Escherichia coli JM109 assessed as inhibition constant using acetyl-TTSTRR-para-nitroaniline as substrate preincubated for 10 mins followed by substrate addition measured after 120 mins by spectrophotometric analysis; design: species or system dengue virus type 2
[13] = Inhibition of DENV2 NS2B-NS3 protease expressed in Escherichia coli BL21 (DE3) using Bz-Nle-Lys-Arg-Arg-AMC as substrate preincubated for 30 mins followed by substrate addition by fluorescence plate reader analysis; design: species or system dengue virus type 2

Structure (SMILES): CCN1/C(=C/C=C/c2oc3ccc(-c4ccccc4)cc3[n+]2CC)Oc2ccc(-c3ccccc3)cc21
- IC50 [1]: 20.5 µM

Structure (SMILES): O=c1cc(-c2ccccc2)oc2ccc(-c3nnn[nH]3)cc12
- Ki [2]: 69 µM

Structure (SMILES): CC(=O)N[C@@H](Cc1ccccc1)C(=O)N[C@@H](C)C(=O)N[C@@H](C)C(=O)NCC(=O)N[C@@H](CCCNC(=N)N)C(=O)N[C@H](C=O)CCCNC(=N)N (Ac-FAAGRR-aldehyde)
- Ki [3]: 16 µM

Structure (SMILES): CCCCCCCCCC[N+](CC)(CC)CCOc1ccc2c(c1)C(=O)c1cc(OCC[N+](CC)(CC)CCCCCCCCCC)ccc1-2
- IC50 [1]: 15.4 µM

Structure (SMILES): N=C(N)Nc1ccc(N[C@H]2C[C@@H](NC(=N)N)[C@H](Oc3ccc(NC(=N)N)cc3)C[C@@H]2Oc2ccc(NC(=N)N)cc2)cc1
- IC50 [4]: 5.3 µM
- IC50 [5]: 10 µM
- IC50 [6]: 4 µM
- IC50 [7]: 12.4 µM

Structure (SMILES): CC(=O)N[C@H](C(=O)N[C@H](C(=O)N[C@@H](CO)C(=O)N[C@H](C(=O)N[C@@H](CCCNC(=N)N)C(=O)N[C@@H](CCCNC(=N)N)C(N)=O)[C@@H](C)O)[C@@H](C)O)[C@@H](C)O (Ac-TTSTRR-NH2)
- Ki [8]: 46 µM

Structure (SMILES): O=C(Nc1nc2cc(O)c(O)cc2s1)c1ccccc1Sc1ccc(C(F)(F)F)cc1
- IC50 [1]: 3.6 µM

Structure (SMILES): Oc1c(C(Cc2nccs2)c2ccccc2OCc2ccccc2)ccc2ccccc12 (stereo not given)
- IC50 [9]: 2.34 µM

Structure (SMILES): N=C(N)Nc1ccc(O[C@H]2C[C@@H](Oc3ccc(NC(=N)N)cc3)[C@H](NC(=N)N)C[C@@H]2NC(=N)N)cc1
- IC50 [4]: 5 µM
- IC50 [5]: 10.9 µM
- IC50 [6]: 9 µM
- IC50 [7]: 20 µM

Structure (SMILES): N=C(N)NCCC[C@@H](C=O)NC(=O)[C@H](CCCNC(=N)N)NC(=O)[C@H](CCCCN)NC(=O)Cc1ccccc1 (PhAc-Lys-Arg-Arg-aldehyde)
- IC50 [10]: 6.7 µM

Structure (SMILES): CC(=O)NCC(=O)N[C@@H](CCCCN)C(=O)N[C@@H](CCCNC(=N)N)C(N)=O (Ac-Gly-Lys-Arg-NH2)
- Ki [8]: 152 µM

Structure (SMILES): Cc1[nH]c2ccccc2c1C(=O)NCc1ccc(CN2CCCC2)cc1
- IC50 [11]: 300 µM

Structure (SMILES): N=C(N)Nc1ccc(O[C@H]2C[C@@H](Oc3ccc(NC(=N)N)cc3NC(=N)N)[C@H](NC(=N)N)C[C@@H]2NC(=N)N)c(NC(=N)N)c1
- Ki [12]: 15.4 µM
- IC50 [4]: 3 µM
- IC50 [5]: 5 µM
- IC50 [6]: 5 µM
- IC50 [7]: 11 µM

Structure (SMILES): N=C(N)NCCC[C@@H](C=O)NC(=O)[C@H](CCCCN)NC(=O)[C@H](CCCCN)NC(=O)Cc1ccccc1 (PhAc-Lys-Lys-Arg-aldehyde)
- IC50 [10]: 167 µM

Structure (SMILES): CC(=O)N[C@H](C(=O)N[C@H](C(=O)N[C@@H](CO)C(=O)N[C@H](C(=O)N[C@@H](CCCNC(=N)N)C(=O)N[C@@H](CCCNC(=N)N)C(=O)C(=O)NCC(=O)N[C@H](C(=O)NCC(=O)N[C@@H](CC(N)=O)C(N)=O)[C@@H](C)O)[C@@H](C)O)[C@@H](C)O)[C@@H](C)O (Ac-TTSTR[Arg(ψCOCO)]GTGN-NH2)
- Ki [3]: 368 µM

Structure (SMILES): N=C(N)Nc1ccc(O[C@H]2C[C@@H](O)[C@H](NC(=N)N)C[C@@H]2NC(=N)N)c(NC(=N)N)c1
- IC50 [4]: 9.7 µM
- IC50 [5]: 15 µM
- IC50 [6]: 20 µM
- IC50 [7]: 57 µM

Structure (SMILES): CC1CNC(c2ccc(Nc3nnc(Nc4ccc(C5=NC(C)CN5)cc4)c4ccccc34)cc2)=N1 (stereo not given)
- IC50 [13]: 8.9 µM

Structure (SMILES): Oc1c(C(Cc2nc3ccccc3s2)c2ccccc2OCc2ccccc2)ccc2ccccc12 (stereo not given)
- IC50 [9]: 3.67 µM

Structure (SMILES): Oc1c(C(Cc2nccs2)c2cccc(OCc3ccccc3)c2)ccc2ccccc12 (stereo not given)
- IC50 [9]: 2.93 µM

Structure (SMILES): O=C(Nc1nc2ccc([N+](=O)[O-])cc2s1)c1ccccc1Sc1ccc(C(F)(F)F)cc1
- IC50 [1]: 22 µM

Structure (SMILES): CC(=O)N[C@@H](Cc1ccccc1)C(=O)N[C@@H](C)C(=O)N[C@@H](C)C(=O)NCC(=O)N[C@@H](CCCNC(=N)N)C(=O)N[C@@H](CCCNC(=N)N)C(=O)C(=O)N[C@@H](CO)C(=O)N[C@@H](CC(C)C)C(N)=O (Ac-FAAGR[Arg(ψCOCO)]SL-NH2)
- Ki [3]: 47 µM

Structure (SMILES): c1ccc([C@H]2Oc3ccccc3[C@@H]3Oc4ccccc4C[C@H]23)cc1
- Ki [2]: 510 µM
